Assay results from patent publication US6232503A, “Alkynyl aryl sulfones” (Lonza Inc., priority 1999, dated 2001).
In brackets after ≈: the same amount, converted by molar mass.

Legend:
Format in all cases: cell-based
Aspergillus niger = assay: Zone of inhibition assay, 5 day minimum inhibitory concentration, Aspergillus niger; details: ATCC16404, 120 h; Aspergillus niger ATCC #16404; 5 days; Day-Engley neutralizing media
Description: The minimum inhibitory concentrations of ethynyl 4-methylbenzene sulfone and the sulfones prepared in Examples 1-15 were determined against the fungi Aspergillus niger by the zone of inhibition assay method common in the art. A. niger ATCC #16404 was contacted with each sulfone for 5 days in a Day-Engley neutralizing media.

Staphylococcus aureus = assay: Zone of inhibition assay, 24 hour minimum inhibitory concentration, Staphylococcus aureus; details: Day-Engley neutralizing media
Description: (§1) The minimum inhibitory concentrations of ethynyl 4-methylbenzene sulfone, available from Aldrich Chemical Co., and the sulfones prepared in Examples 1-15 were determined against the bacteria Burkholderia cepacia and Staphylococcus aureus by the zone of inhibition assay method common in the art. Burkholderia cepacia and Staphylococcus aureus was contacted with each sulfone for 24 hours in a Day-Engley neutralizing media (Difco Manual, 10th Ed., p. 261-263 (1984). The results are shown in Table 1.

Burkholderia cepacia = assay: Zone of inhibition assay, 24 hour minimum inhibitory concentration, Burkholderia cepacia; details: Day-Engley neutralizing media
Description: as §1

With `Cc1ccc(S(=O)(=O)C#CI)cc1` [Iodoethynyl 4-Methylbenzene Sulfone, Iodoethynyl 4-methylbenzene sulfone] the MIC (Aspergillus niger) was 100 to 300 µg/mL (≈ 327 to 980 µM), the MIC (Staphylococcus aureus) was 0.3 to 1 µg/mL (≈ 0.98 to 3.27 µM) and the MIC (Burkholderia cepacia) was 0.3 to 1 µg/mL (≈ 0.98 to 3.27 µM).

`O=S(=O)(C#CI)c1ccccc1` [Iodoethynyl Benzene Sulfone, Iodoethynyl benzene sulfone] showed an MIC (Aspergillus niger) of 300 to 1000 µg/mL (≈ 1030 to 3420 µM), an MIC (Staphylococcus aureus) of 0.3 to 1 µg/mL (≈ 1.03 to 3.42 µM) and an MIC (Burkholderia cepacia) of 3 to 10 µg/mL (≈ 10.3 to 34.2 µM).

Work on `COc1ccc(S(=O)(=O)C#CI)cc1OC` [Iodoethynyl 3,4-Dimethoxybenzene Sulfone, Iodoethynyl 3,4-dimethoxybenzene sulfone] yielded an MIC (Aspergillus niger) of 300 to 1000 µg/mL (≈ 852 to 2840 µM), an MIC (Staphylococcus aureus) of 30 to 100 µg/mL (≈ 85.2 to 284 µM) and an MIC (Burkholderia cepacia) of 300 to 1000 µg/mL (≈ 852 to 2840 µM).

`Cc1cc(C)c(S(=O)(=O)C#CI)c(C)c1` [Iodoethynyl 2,4,6-trimethylbenzene sulfone] gave an MIC (Aspergillus niger) of 100 to 300 µg/mL (≈ 299 to 898 µM), an MIC (Staphylococcus aureus) of 100 to 300 µg/mL (≈ 299 to 898 µM) and an MIC (Burkholderia cepacia) of 300 to 1000 µg/mL (≈ 898 to 2990 µM).

`C#CS(=O)(=O)c1ccccc1` [Ethynyl Benzene Sulfone, Ethynyl benzene sulfone] showed an MIC (Aspergillus niger) of 1000 to 3000 µg/mL (≈ 6020 to 18100 µM), an MIC (Staphylococcus aureus) of 1 to 3 µg/mL (≈ 6.02 to 18.1 µM) and an MIC (Burkholderia cepacia) of 10 to 30 µg/mL (≈ 60.2 to 181 µM).

`C#CS(=O)(=O)c1ccc(OC)cc1` [Ethynyl 4-Methoxybenzene Sulfone, ethynyl 4-methoxybenzene sulfone] showed an MIC (Aspergillus niger) of 1000 to 3000 µg/mL (≈ 5100 to 15300 µM), an MIC (Staphylococcus aureus) of 1 to 3 µg/mL (≈ 5.1 to 15.3 µM) and an MIC (Burkholderia cepacia) of 30 to 100 µg/mL (≈ 153 to 510 µM).

Work on `C#CS(=O)(=O)c1ccc(CC)cc1` [Ethynyl 4-Ethylbenzene Sulfone] yielded an MIC (Aspergillus niger) of 3000 to 10000 µg/mL (≈ 15400 to 51500 µM), an MIC (Staphylococcus aureus) of 3 to 10 µg/mL (≈ 15.4 to 51.5 µM) and an MIC (Burkholderia cepacia) of 300 to 1000 µg/mL (≈ 1540 to 5150 µM).

For `O=S(=O)(C#CI)c1ccc(OC(F)(F)F)cc1` [Iodoethynyl 4-trifluoromethoxybenzene sulfone], the MIC (Aspergillus niger) was 30 to 100 µg/mL (≈ 79.8 to 266 µM), the MIC (Staphylococcus aureus) was 0.3 to 1 µg/mL (≈ 0.798 to 2.66 µM) and the MIC (Burkholderia cepacia) was 100 to 300 µg/mL (≈ 266 to 798 µM).

For `C#CS(=O)(=O)c1ccc(C)cc1` [Ethynyl 4-Methylbenzene Sulfone, ethynyl 4-methylbenzene sulfone, reference compound], the MIC (Aspergillus niger) was 3000 to 10000 µg/mL (≈ 16600 to 55500 µM), the MIC (Staphylococcus aureus) was 3 to 10 µg/mL (≈ 16.6 to 55.5 µM) and the MIC (Burkholderia cepacia) was 100 to 300 µg/mL (≈ 555 to 1660 µM).

`C#CS(=O)(=O)c1c(C)cc(C)cc1C` [Ethynyl 2,4,6-Trimethylbenzene Sulfone, Ethynyl 2,4,6-trimethylbenzene sulfone] showed an MIC (Aspergillus niger) of 3000 to 10000 µg/mL (≈ 14400 to 48000 µM), an MIC (Staphylococcus aureus) of 300 to 1000 µg/mL (≈ 1440 to 4800 µM) and an MIC (Burkholderia cepacia) of 300 to 1000 µg/mL (≈ 1440 to 4800 µM).

Compound `COc1ccc(S(=O)(=O)C#CI)cc1` [Iodoethynyl 4-Methoxybenzene Sulfone, iodoethynyl 4-methoxybenzene sulfone] has an MIC (Aspergillus niger) of 30 to 100 µg/mL (≈ 93.1 to 310 µM), an MIC (Staphylococcus aureus) of 3 to 10 µg/mL (≈ 9.31 to 31 µM) and an MIC (Burkholderia cepacia) of 30 to 100 µg/mL (≈ 93.1 to 310 µM).

Compound `C#CS(=O)(=O)c1ccc(OC)c(OC)c1` [Ethynyl 3,4-Dimethoxybenzene Sulfone, Ethynyl 3,4-dimethoxybenzene sulfone] has an MIC (Aspergillus niger) greater than 10000 µg/mL, an MIC (Staphylococcus aureus) of 10 to 30 µg/mL (≈ 44.2 to 133 µM) and an MIC (Burkholderia cepacia) greater than 1000 µg/mL.

Work on `C#CS(=O)(=O)c1ccc(C(C)(C)C)cc1` [Ethynyl 4-t-Butylbenzene Sulfone, Ethynyl 4-t-butylbenzene sulfone] yielded an MIC (Aspergillus niger) greater than 10000 µg/mL, an MIC (Staphylococcus aureus) of 30 to 100 µg/mL (≈ 135 to 450 µM) and an MIC (Burkholderia cepacia) greater than 1000 µg/mL.

`C#CS(=O)(=O)c1ccc(OC(F)(F)F)cc1` [Ethynyl 4-trifluoromethoxybenzene sulfone] showed an MIC (Aspergillus niger) greater than 10000 µg/mL, an MIC (Staphylococcus aureus) of 3 to 10 µg/mL (≈ 12 to 40 µM) and an MIC (Burkholderia cepacia) greater than 1000 µg/mL.

In the case of `CCc1ccc(S(=O)(=O)C#CI)cc1` [Iodoethynyl 4-Ethylbenzene Sulfone, Iodoethynyl 4-ethylbenzene sulfone], the MIC (Aspergillus niger) is reported as 10 to 30 µg/mL (≈ 31.2 to 93.7 µM), the MIC (Staphylococcus aureus) is reported as 0.3 to 1 µg/mL (≈ 0.937 to 3.12 µM) and the MIC (Burkholderia cepacia) is reported as 100 to 300 µg/mL (≈ 312 to 937 µM).

Work on `CC(C)(C)c1ccc(S(=O)(=O)C#CI)cc1` [Iodoethynyl 4-t-Butylbenzene Sulfone, Iodoethynyl 4-t-butylbenzene sulfone] yielded an MIC (Aspergillus niger) of 100 to 300 µg/mL (≈ 287 to 862 µM), an MIC (Staphylococcus aureus) of 1 to 3 µg/mL (≈ 2.87 to 8.62 µM) and an MIC (Burkholderia cepacia) of 300 to 1000 µg/mL (≈ 862 to 2870 µM).
